Earlier results in US20250339408A1, “TREATMENT AND PREVENTION OF BASAL CELL CARCINOMA WITH TOPICAL COMPOSITION COMPRISING PATIDEGIB” (Sol-Gel Technologies Ltd., priority 2023, published 2025).

Test system: patients with Gorlin Syndrome
Settings: oral drugs; with and without PTCH1 mutation; cited from earlier work

Compound	Effect in patients with Gorlin Syndrome (in words)
CS(=O)(=O)c1ccc(C(=O)Nc2ccc(Cl)c(-c3ccccn3)c2)c(Cl)c1 [Vismodegib]	known to effect patients with Gorlin Syndrome, both with and without PTCH1 mutation
Cc1c(C(=O)Nc2ccc(N3C[C@@H](C)O[C@@H](C)C3)nc2)cccc1-c1ccc(OC(F)(F)F)cc1 [Sonidegib]	known to effect patients with Gorlin Syndrome, both with and without PTCH1 mutation
